Here are results for 24 molecules from patent US11407767B2, “Heterocyclyl substituted pyrrolopyridines that are inhibitors of the CDK12 kinase” (The University of Nottingham, priority 2017, dated 2022).

Sequence of CDK12/CycK (Q9NYV4 whole entry): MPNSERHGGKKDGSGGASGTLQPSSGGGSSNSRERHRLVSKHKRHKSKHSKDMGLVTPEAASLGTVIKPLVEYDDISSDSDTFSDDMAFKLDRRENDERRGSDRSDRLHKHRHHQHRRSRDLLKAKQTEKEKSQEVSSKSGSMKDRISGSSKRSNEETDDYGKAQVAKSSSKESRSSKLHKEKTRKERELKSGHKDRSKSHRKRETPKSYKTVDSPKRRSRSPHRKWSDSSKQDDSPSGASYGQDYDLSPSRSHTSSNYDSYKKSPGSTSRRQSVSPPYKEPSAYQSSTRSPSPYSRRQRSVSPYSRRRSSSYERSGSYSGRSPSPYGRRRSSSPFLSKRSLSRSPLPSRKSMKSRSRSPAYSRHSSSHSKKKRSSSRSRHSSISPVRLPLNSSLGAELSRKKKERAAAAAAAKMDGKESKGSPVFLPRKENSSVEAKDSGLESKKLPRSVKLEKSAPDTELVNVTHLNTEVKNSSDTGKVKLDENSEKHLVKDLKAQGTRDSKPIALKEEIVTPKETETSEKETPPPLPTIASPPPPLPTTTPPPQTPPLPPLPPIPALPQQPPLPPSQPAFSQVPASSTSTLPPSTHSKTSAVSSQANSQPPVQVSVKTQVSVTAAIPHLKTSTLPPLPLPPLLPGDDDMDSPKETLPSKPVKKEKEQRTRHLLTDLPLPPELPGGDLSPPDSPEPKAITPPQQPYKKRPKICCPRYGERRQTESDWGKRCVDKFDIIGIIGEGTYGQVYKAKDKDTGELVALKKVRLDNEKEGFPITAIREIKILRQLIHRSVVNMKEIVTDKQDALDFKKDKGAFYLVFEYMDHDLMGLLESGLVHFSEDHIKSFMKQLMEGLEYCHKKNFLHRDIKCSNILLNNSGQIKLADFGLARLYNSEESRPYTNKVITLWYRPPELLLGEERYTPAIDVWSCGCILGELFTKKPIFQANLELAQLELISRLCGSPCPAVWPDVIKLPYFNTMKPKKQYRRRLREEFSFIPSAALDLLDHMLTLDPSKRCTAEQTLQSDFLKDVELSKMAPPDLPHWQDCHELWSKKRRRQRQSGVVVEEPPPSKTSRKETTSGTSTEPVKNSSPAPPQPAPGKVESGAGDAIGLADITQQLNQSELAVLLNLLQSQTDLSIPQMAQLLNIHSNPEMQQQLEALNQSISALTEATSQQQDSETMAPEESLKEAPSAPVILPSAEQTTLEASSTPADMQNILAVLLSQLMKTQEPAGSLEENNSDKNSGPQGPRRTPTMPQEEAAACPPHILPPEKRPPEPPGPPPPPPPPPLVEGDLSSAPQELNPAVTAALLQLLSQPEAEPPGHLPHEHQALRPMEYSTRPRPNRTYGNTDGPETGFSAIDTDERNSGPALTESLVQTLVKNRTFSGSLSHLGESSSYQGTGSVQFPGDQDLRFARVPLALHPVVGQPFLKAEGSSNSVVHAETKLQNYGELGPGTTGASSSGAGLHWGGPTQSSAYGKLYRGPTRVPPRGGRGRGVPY
Sequence of CDK12/CycK (O75909 whole entry partner): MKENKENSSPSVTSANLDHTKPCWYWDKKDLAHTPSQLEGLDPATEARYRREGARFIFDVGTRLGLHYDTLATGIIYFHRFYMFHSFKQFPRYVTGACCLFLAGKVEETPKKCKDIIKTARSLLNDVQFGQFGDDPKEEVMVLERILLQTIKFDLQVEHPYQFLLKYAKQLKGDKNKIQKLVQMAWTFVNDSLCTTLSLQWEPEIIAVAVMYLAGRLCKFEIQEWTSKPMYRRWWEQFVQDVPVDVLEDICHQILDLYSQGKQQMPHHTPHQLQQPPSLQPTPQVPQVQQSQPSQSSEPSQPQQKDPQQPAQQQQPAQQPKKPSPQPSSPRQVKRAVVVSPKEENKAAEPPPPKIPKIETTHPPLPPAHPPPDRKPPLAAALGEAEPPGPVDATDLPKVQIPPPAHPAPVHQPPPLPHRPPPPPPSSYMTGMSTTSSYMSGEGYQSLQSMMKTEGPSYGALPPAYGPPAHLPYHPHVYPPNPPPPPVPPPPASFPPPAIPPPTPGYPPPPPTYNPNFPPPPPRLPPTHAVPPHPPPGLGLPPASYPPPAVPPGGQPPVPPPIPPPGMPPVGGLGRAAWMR

The assay has as its target CDK12/CycK (Homo sapiens, UniProt Q9NYV4). Briefly: Inhibition of CDK12 (ADP-Glo kinase assay). The settings on record: 60 nM CDK12/CycK, 30 minutes pre-incubation, 1 μM ATP, 0.5 μM RBER-IRStide substrate, 1 h at 25° C., read-out: CDK12/cyclin K IC50. The format is biochemical. The method in brief:
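ADP-Glo luminescence read after a 1 h, 25 °C reaction with 1 μM ATP and 0.5 μM RBER-IRStide peptide. Enzyme (60 nM) and compound were first pre-incubated 30 min; buffer 50 mM HEPES pH 7.5, 20 mM MgCl2, 3 mM MnCl2, 1% DMSO. IC50 fitted after blank subtraction.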
A general note: ADP-Glo first removes unused ATP, then detects ADP through luciferase.
With `C=CC(=O)N1CCC[C@@H]1C(=O)NCCc1cc2c(-c3ccnn3C)ccnc2[nH]1` [Example 52, (R)-1-Acryloyl-N-(2-(4-(1-methyl-1H-pyrazol-5-yl)-1H-pyrrolo[2,3-b]pyridin-2-yl)ethyl)pyrrolidine-2-carboxamide], the IC50 lay in the range of 1000 to 30000 nM. As for `COc1cnn2ncc(-c3ccnc4[nH]ccc34)c2c1` [Example 23, 5-Methoxy-3-(1H-pyrrolo[2,3-b]pyridin-4-yl)pyrazolo[1,5-b]pyridazine], the figure is 1000 to 30000 nM; as for `CN(C)C(=O)c1cc2c(-c3cnn4ncccc34)ccnc2[nH]1` [Example 2, N,N-Dimethyl-4-(pyrazolo[1,5-b]pyridazin-3-yl)-1H-pyrrolo[2,3-b]pyridine-2-carboxamide], 1000 to 30000 nM; as for `C=CC(=O)N1CCC[C@H]1C(=O)NCc1cc2c(-c3cnn4ncccc34)ccnc2[nH]1` [Example 183, (S)-1-Acryloyl-N-((4-(pyrazolo[1,5-b]pyridazin-3-yl)-1H-pyrrolo[2,3-b]pyridin-2-yl)methyl)pyrrolidine-2-carboxamide], 1000 to 30000 nM.

For `C=CC(=O)N[C@H]1COC[C@@H]1C(=O)NCc1cc2c(-c3cnn4ncccc34)ccnc2[nH]1` [Example 58, (3R,4R)-4-Acrylamido-N-((4-(pyrazolo[1,5-b]pyridazin-3-yl)-1H-pyrrolo[2,3-b]pyridin-2-yl)methyl)tetrahydrofuran-3-carboxamide], the IC50 was 1000 to 30000 nM. As for `C=CC(=O)N1CCC[C@@H]1C(=O)N1CCC(c2cc3c(-c4cnn5ncccc45)ccnc3[nH]2)C1` (stereo partly drawn) [Example 154, 1-((2R)-2-(3-(4-(Pyrazolo[1,5-b]pyridazin-3-yl)-1H-pyrrolo[2,3-b]pyridin-2-yl)pyrrolidine-1-carbonyl)pyrrolidin-1-yl)prop-2-en-1-one], the figure is < 100 nM. As for `Cc1c[nH]c2nccc(-c3cnn4ncccc34)c12` [Example 8, 3-(3-Methyl-1H-pyrrolo[2,3-b]pyridin-4-yl)pyrazolo[1,5-b]pyridazine], the figure is 1000 to 30000 nM. As for `C=CC(=O)NC1(C(=O)NCCCc2cc3c(-c4cnn5ncccc45)ccnc3[nH]2)CC1` [Example 214, 1-Acrylamido-N-(3-(4-(pyrazolo[1,5-b]pyridazin-3-yl)-1H-pyrrolo[2,3-b]pyridin-2-yl)propyl)cyclopropane-1-carboxamide], the figure is < 100 nM; as for `CC(C)(C)OC(=O)N1CCN(Cc2cc3c(-c4cnn5ncccc45)ccnc3[nH]2)CC1` [Example 15, tert-Butyl 4-((4-(pyrazolo[1,5-b]pyridazin-3-yl)-1H-pyrrolo[2,3-b]pyridin-2-yl)methyl)piperazine-1-carboxylate], 1000 to 30000 nM. For `O=C(NCCc1cc2c(-c3ccncc3)ccnc2[nH]1)[C@@H]1CCCN1` [Example 107, (S)—N-(2-(4-(Pyridin-4-yl)-1H-pyrrolo[2,3-b]pyridin-2-yl)ethyl)pyrrolidine-2-carboxamide], the IC50 was in the range of 1000 to 30000 nM. As for `C=CC(=O)N1CCC[C@H]1C(=O)NCCCc1cc2c(-c3cnn4ncccc34)ccnc2[nH]1` [Example 216, (S)-1-Acryloyl-N-(3-(4-(pyrazolo[1,5-b]pyridazin-3-yl)-1H-pyrrolo[2,3-b]pyridin-2-yl)propyl)pyrrolidine-2-carboxamide], the figure is < 100 nM. As for `C=CC(=O)N1CCN(C(=O)/C=C/c2cc3c(-c4cnn5ncccc45)ccnc3[nH]2)CC1` [Example 209, (E)-1-(4-Acryloylpiperazin-1-yl)-3-(4-(pyrazolo[1,5-b]pyridazin-3-yl)-1H-pyrrolo[2,3-b]pyridin-2-yl)prop-2-en-1-one], the figure is < 100 nM; as for `C=CC(=O)N1CCC[C@@H]1C(=O)N(C)CCc1cc2c(-c3cnn4ncccc34)ccnc2[nH]1` [Example 47, (R)-1-Acryloyl-N-methyl-N-(2-(4-(pyrazolo[1,5-b]pyridazin-3-yl)-1H-pyrrolo[2,3-b]pyridin-2-yl)ethyl)pyrrolidine-2-carboxamide], 1000 to 30000 nM. As for `c1cnn2ncc(-c3ccnc4[nH]c(CN5CCOCC5)cc34)c2c1` [Example 12, 4-((4-(Pyrazolo[1,5-b]pyridazin-3-yl)-1H-pyrrolo[2,3-b]pyridin-2-yl)methyl)morpholine], the IC50 was in the range of 1000 to 30000 nM.

With `c1cnn2ncc(-c3ccnc4[nH]c([C@@H]5CCNC5)cc34)c2c1` (single isomer, unassigned) [Example 124, 3-(2-(Pyrrolidin-3-yl)-1H-pyrrolo[2,3-b]pyridin-4-yl)pyrazolo[1,5-b]pyridazine], the IC50 lay in the range of 100 to 1000 nM.

Take `C=CC(=O)Nc1cccc(C(=O)Nc2cccc(-c3cc4c(-c5cnn6ncccc56)ccnc4[nH]3)c2)c1` [Example 115, 3-Acrylamido-N-(3-(4-(pyrazolo[1,5-b]pyridazin-3-yl)-1H-pyrrolo[2,3-b]pyridin-2-yl)phenyl)benzamide]: the IC50 was < 100 nM.

In the case of `CCOCCC(=O)Nc1ccc(C(=O)NCCc2cc3c(-c4cnn5ncccc45)ccnc3[nH]2)cc1` [Example 81, 4-(3-Ethoxypropanamido)-N-(2-(4-(pyrazolo[1,5-b]pyridazin-3-yl)-1H-pyrrolo[2,3-b]pyridin-2-yl)ethyl)benzamide], the IC50 is < 100 nM.

`C=CC(=O)N[C@@H]1CC[C@@H](C(=O)NCc2cc3c(-c4cnn5ncccc45)ccnc3[nH]2)C1` [Example 59, (1R,3R)-3-Acrylamido-N-((4-(pyrazolo[1,5-b]pyridazin-3-yl)-1H-pyrrolo[2,3-b]pyridin-2-yl)methyl)cyclopentane-1-carboxamide]: the IC50 is 1000 to 30000 nM. As for `C=CC(=O)N1CCC[C@@H](C(=O)NCc2cc3c(-c4cnn5ncccc45)ccnc3[nH]2)C1` [Example 184, (R)-1-Acryloyl-N-((4-(pyrazolo[1,5-b]pyridazin-3-yl)-1H-pyrrolo[2,3-b]pyridin-2-yl)methyl)piperidine-3-carboxamide], the figure is 1000 to 30000 nM; as for `CN(C)C/C=C/C(=O)N1CCCC[C@H]1C(=O)NCCc1cc2c(-c3cnn4ncccc34)ccnc2[nH]1` [Example 87, (S,E)-1-(4-(Dimethylamino)but-2-enoyl)-N-(2-(4-(pyrazolo[1,5-b]pyridazin-3-yl)-1H-pyrrolo[2,3-b]pyridin-2-yl)ethyl)piperidine-2-carboxamide], 1000 to 30000 nM; as for `CN1CCC(OCc2cc3c(-c4cnn5ncccc45)ccnc3[nH]2)CC1` [Example 167, 3-(2-(((1-Methylpiperidin-4-yl)oxy)methyl)-1H-pyrrolo[2,3-b]pyridin-4-yl)pyrazolo[1,5-b]pyridazine diformate], 1000 to 30000 nM.

Turning to `CC1(C)OCC(COc2cnn3ncc(-c4ccnc5[nH]ccc45)c3c2)O1` (stereo not drawn) [Example 25, 5-((2,2-Dimethyl-1,3-dioxolan-4-yl)methoxy)-3-(1H-pyrrolo[2,3-b]pyridin-4-yl)pyrazolo[1,5-b]pyridazine], the IC50 lay in the range of 1000 to 30000 nM.

For `NCCc1cc2c(-c3cnn4ncccc34)c(Cl)cnc2[nH]1` [Example 101, 2-(5-chloro-4-(pyrazolo[1,5-b]pyridazin-3-yl)-1H-pyrrolo[2,3-b]pyridin-2-yl)ethan-1-amine], the IC50 was in the range of 100 to 1000 nM. As for `C=CC(=O)NCC1CCN(Cc2cc3c(-c4cnn5ncccc45)ccnc3[nH]2)C1` (stereo not drawn) [Example 199, N-((1-((4-(Pyrazolo[1,5-b]pyridazin-3-yl)-1H-pyrrolo[2,3-b]pyridin-2-yl)methyl)pyrrolidin-3-yl)methyl)acrylamide], the figure is 1000 to 30000 nM.
